Data as given in patent US20250250264A1, “KIF18A INHIBITOR AND USE THEREOF” (Wuhan Humanwell Innovative Drug Research and Development …, priority 2022, published 2025).
Where two headings read alike, the source gives them in different places.

Assays:
[1] = molecular target: recombinant protein KIF18A (kinesin domain: aa 1-467) (Homo sapiens (Human), UniProt Q8NI77); assay: Assay on inhibition of KIF18A enzymatic activity (ADP-Glo); assay type: biochemical; conditions: KIF18A 80 nM, ATP 80 μM, 3 h at room temperature, ADP-Glo luminescence; read-out: IC50 (μM), inhibitory effects of compounds on KIF18A enzymatic activity
Excerpt: The recombinant protein KIF18A (kinesin domain: aa 1-467) used in this assay was expressed by the Bac-to-Bac baculovirus expression system from Invitrogen, and the resulting protein was purified for use in this assay (Seki, M. et al. 2003 Nucleic Acids Res.). Quantitative detection of KIF18A enzymatic activity was completed using an ADP-Glo™ kinase assay kit (Promega Inc). Related procedures strictly followed the product instructions, which are briefly described as follows:
The reaction system consisted of a test compound, the recombinant protein KIF18A (aa 1-467), ATP (Promega Inc), and an assay buffer. The test compound was prepared into a 0.5 mM stock solution using DMSO (Sigma Inc) and then serially diluted in DMSO. The assay buffer consisted of an aqueous solution of 15 mM Tris, 10 mM MgCl2 (Sigma Inc), 0.01% Pluronic F-68 (Life Technologies Inc), 1 μM paclitaxel (Cytoskeleton Inc), 30 μg/mL porcine tubulin (Cytoskeleton Inc), and 2% DMSO. The KIF18A protein (final concentration: 80 nM) and the compound at different concentrations (1 μL) were added to the prepared assay buffer (50 μL), and the mixture was incubated at room temperature for 15 min. Then, ATP (final concentration: 80 μM) was added to the reaction mixture, and the resulting mixture was incubated at room temperature for 3 h. After the reaction was completed, 5 μL of the ADP-Glo™ reagent and 2.5 μL of the reaction mixture were added to a 384-well plate (Grenier Inc). The resulting mixture was mixed homogeneously, then sealed by an aluminum foil sealing film, and incubated at room temperature in the dark for 40 min. Finally, 10 μL of the […] was added to each reaction well, and the mixture was incubated at room temperature in the dark for 40 min. After all reactions were completed, the luminescence values of the wells were read on a microplate reader (Molecular Device_SpectraMax Id5), and the inhibition ratios were calculated. The calculation formula for the inhibition rates was as follows: inhibition rate=(1−(compound group−blank group)/(negative control group−blank group))×100%. Then, based on the inhibition rates at different compound concentrations, the IC50 value of the test compound was calculated using the GraphPad Prism 8 software.

[2] = test system: NIH:OVCAR-3 cells; assay: Assay on inhibition of OVCAR3 tumor cell proliferation (CellTiter-Glo); assay type: cell-based; conditions: 3 days of drug treatment, read-out: IC50 (μM), inhibitory effects of compounds on tumor cell proliferation
Method: NIH:OVCAR-3 cells (ATCC, Cat No. HTB-161, purchased from Co-Bier) were seeded into a T75 culture flask and cultured in an RPMI 1640 medium containing 20% FBS for 3 days in preparation for subsequent culturing and seeding into a 96-well plate for the cell proliferation assay.
The OVCAR3 cells were seeded at a density of 3000 cells/100 μL/well into the 96-well cell plate, and then the plate was incubated in an incubator (37° C., 5% CO2) for 18 h. On the second day, drug treatment was started. Serially diluted test compound solutions (each drug starting at a concentration of 10 μM, diluted in DMSO, with a dilution ratio of 1:3, and nine gradient points for each drug) or DMSO (negative control) was added to the medium in the plate at 100 μL/well, and a blank group was set up with only medium, but no seeded cell strains. After the drug addition, the plate was incubated in the incubator for another 3 days (37° C., 5% CO2). On the fourth day, plate detection was performed. To each well, 100 μL of CellTiter-Glo reagent (Promega G9243) was added. The plate was shaken for 5 min and then left to stand at room temperature for 5 min. The chemical luminescence signal value of each well was determined using a microplate reader (PerkinElmer EnVision®2104). Cell proliferation inhibition rate=(1−(compound group−blank group)/(DMSO group−blank group))×100%. Then, the IC50 value of each compound was calculated using the GraphPad Prism 8 software.

recombinant protein KIF18A (kinesin domain: aa 1-467), sequence (Q8NI77 1-467): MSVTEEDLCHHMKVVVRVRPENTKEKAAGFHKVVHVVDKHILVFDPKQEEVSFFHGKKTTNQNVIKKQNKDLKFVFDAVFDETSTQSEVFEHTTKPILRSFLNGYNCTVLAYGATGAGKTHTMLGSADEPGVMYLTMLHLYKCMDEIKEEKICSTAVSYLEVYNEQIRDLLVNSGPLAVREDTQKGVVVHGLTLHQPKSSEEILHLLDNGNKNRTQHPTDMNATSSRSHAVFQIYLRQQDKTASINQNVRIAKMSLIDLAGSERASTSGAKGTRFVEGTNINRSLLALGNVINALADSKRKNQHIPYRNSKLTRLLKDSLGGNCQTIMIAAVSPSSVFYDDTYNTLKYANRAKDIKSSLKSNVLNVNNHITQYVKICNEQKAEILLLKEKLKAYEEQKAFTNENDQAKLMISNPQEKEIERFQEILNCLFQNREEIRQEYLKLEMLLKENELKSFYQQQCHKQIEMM
recombinant protein KIF18A (kinesin domain: aa 1-467), sequence (P02550 whole entry partner, the tested form may be a part): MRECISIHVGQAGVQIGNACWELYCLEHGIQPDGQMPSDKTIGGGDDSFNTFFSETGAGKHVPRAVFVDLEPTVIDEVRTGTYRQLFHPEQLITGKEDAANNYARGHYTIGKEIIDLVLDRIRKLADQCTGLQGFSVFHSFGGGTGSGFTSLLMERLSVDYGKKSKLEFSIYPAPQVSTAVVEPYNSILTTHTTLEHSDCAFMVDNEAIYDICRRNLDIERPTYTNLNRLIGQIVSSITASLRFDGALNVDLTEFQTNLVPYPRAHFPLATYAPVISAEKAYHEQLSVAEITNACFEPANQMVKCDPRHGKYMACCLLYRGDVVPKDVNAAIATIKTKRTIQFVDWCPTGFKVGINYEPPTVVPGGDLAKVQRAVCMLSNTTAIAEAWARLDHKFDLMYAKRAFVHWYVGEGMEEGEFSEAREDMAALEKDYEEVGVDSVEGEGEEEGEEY
recombinant protein KIF18A (kinesin domain: aa 1-467), sequence (P02554 whole entry partner, the tested form may be a part): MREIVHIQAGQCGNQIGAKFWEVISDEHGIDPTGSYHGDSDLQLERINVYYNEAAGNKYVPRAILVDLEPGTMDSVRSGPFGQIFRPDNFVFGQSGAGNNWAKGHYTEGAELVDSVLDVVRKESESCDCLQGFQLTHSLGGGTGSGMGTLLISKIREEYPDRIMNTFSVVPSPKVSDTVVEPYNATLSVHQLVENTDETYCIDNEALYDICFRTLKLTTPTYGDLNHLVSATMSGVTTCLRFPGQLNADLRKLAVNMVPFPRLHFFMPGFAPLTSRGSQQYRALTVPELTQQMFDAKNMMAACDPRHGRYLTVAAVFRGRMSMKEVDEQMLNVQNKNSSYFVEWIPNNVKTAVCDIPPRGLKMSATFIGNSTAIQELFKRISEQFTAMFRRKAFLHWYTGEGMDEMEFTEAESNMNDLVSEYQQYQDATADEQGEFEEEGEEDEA

| Structure (SMILES) | IC50 [1] [µM] | IC50 ([2]; Homo sapiens, OVCAR-3, 72 h) [µM] | IC50 [2] [µM] |
| --- | --- | --- | --- |
| Cc1cc(-c2cnn(-c3ccc(NS(=O)(=O)CCO)cc3N3CCC4(CC3)CC4)c2)nc(N2CCCC(F)(F)C2)n1 [Example I-118, N-(4-(4-(2-(3,3-Difluoropiperidin-1-yl)-6-methylpyrimidin-4-yl)-1H-pyrazol-1-yl)-3-(6-azaspiro[2.5]octan-6-yl)phenyl)-2-hydroxyethane-1-sulfonamide] | 0.002 | 0.184 |  |
| Cc1cc(-c2nnc(-c3ccc(NS(=O)(=O)CCO)cc3N3CCC4(CC3)CC4)o2)nc(N2CCC(F)(F)CC2)n1 [Example I-2, N-(4-(5-(2-(4,4-Difluoropiperidin-1-yl)-6-methylpyrimidin-4-yl)-1,3,4-oxadiazol-2-yl)-3-(6-azaspiro[2.5]octan-6-yl)phenyl)-2-hydroxyethane-1-sulfonamide] | 0.002 | 0.08 |  |
| Cc1cc(-c2nnc(-c3ccc(NS(=O)(=O)CCO)cc3N3CCC4(CC3)CC4)o2)cc(N2CCC(F)CC2)n1 [Example I-105, N-(4-(5-(2-(4-Fluoropiperidin-1-yl)-6-methylpyridin-4-yl)-1,3,4-oxadiazol-2-yl)-3-(6-azaspiro [2.5]octan-6-yl)phenyl)-2-hydroxyethane-sulfonamide] | 0.002 | 0.033 |  |
| Cc1cc(-c2cnn(-c3ccc(NS(=O)(=O)CCO)cc3N3CCC(C)(F)CC3)c2)nc(N2CCC(F)(F)CC2)n1 [Example I-117, N-(4-(4-(2-(4,4-Difluoropiperidin-1-yl)-6-methylpyrimidin-4-yl)-1H-pyrazol-1-yl)-3-(4-fluoro-4-methylpiperidin-1-yl)phenyl)-2-hydroxyethane-1-sulfonamide] | 0.009 | 0.365 |  |
| Cc1cc(-c2nnc(-c3ccc(NS(=O)(=O)CCO)cc3N3CCC4(CC3)CC4)o2)nc(OCCC(F)(F)F)n1 [Example I-27, 2-Hydroxy-N-(4-(5-(6-methyl-2-(3,3,3-trifluoropropoxy)pyrimidin-4-yl)-1,3,4-oxadiazol-2-yl)-3-(6-azaspiro[2.5]octan-6-yl)phenyl)ethane-1-sulfonamide] | 0.001 | 0.079 |  |
| Cc1cc(-c2nnc(-c3ccc(NS(=O)(=O)CCO)cc3N3CCC4(CC3)CC4)o2)nc(N2CCC(F)(F)C2)n1 [Example I-5, N-(4-(5-(2-(3,3-Difluoropyrrolidin-1-yl)-6-methylpyrimidin-4-yl)-1,3,4-oxadiazol-2-yl)-3-(6-azaspiro[2.5]octan-6-yl)phenyl)-2-hydroxyethane-1-sulfonamide] | 0.007 | 0.186 |  |
| Cc1cc(-c2nnc(-c3ccc(NS(=O)(=O)CCO)cc3N3CCC4(CC3)CC4)o2)nc(N2CCC3(CC3)C2)n1 [Example I-17, 2-Hydroxy-N-(4-(5-(6-methyl-2-(5-azaspiro[2.4]heptan-5-yl)pyrimidin-4-yl)-1,3,4-oxadiazol-2-yl)-3-(6-azaspiro[2.5]octan-6-yl)phenyl)ethane-1-sulfonamide] | 0.01 | 0.56 |  |
| Cc1cc(-c2nnc(-c3ccc(NS(=O)(=O)CCO)cc3N3CCC4(CC3)CC4)o2)cc(N2CCC(F)(F)CC2)n1 [Example I-52, N-(4-(5-(2-(4,4-Difluoropiperidin-1-yl)-6-methylpyridin-4-yl)-1,3,4-oxadiazol-2-yl)-3-(6-azaspiro[2.5]octan-6-yl)phenyl)-2-hydroxyethane-1-sulfonamide] | 0.001 |  | 0.045 |
| O=S(=O)(CCO)Nc1ccc(-n2cc(-c3ncnc(N4CCC(F)(F)CC4)n3)cn2)c(N2CCC3(CC2)CC3)c1 [Example I-130, N-(4-(4-(4-(4,4-Difluoropiperidin-1-yl)-1,3,5-triazin-2-yl)-1H-pyrazol-1-yl)-3-(6-azaspiro [2.5]octan-6-yl)phenyl)-2-hydroxyethanesulfonamide] | 0.009 | 0.142 |  |
| Cc1cc(-c2cnn(-c3ccc(NS(=O)(=O)CCO)cc3N3CCC4(CC3)CC4)c2)nc(N2CCCC2)n1 [Example I-116, N-(4-(4-(6-Methyl-2-(pyrrolidin-1-yl)pyrimidin-4-yl)-1H-pyrazol-1-yl)-3-(6-azaspiro[2.5]octan-6-yl)phenyl)-2-hydroxyethane-1-sulfonamide] | 0.013 | 0.389 |  |
| Cc1cc(-c2nnc(-c3ccc(NS(=O)(=O)CCO)cc3N3CCC4(CC3)CC4)s2)nc(N2CCCC(F)(F)C2)n1 [Example I-85, N-(4-(5-(2-(3,3-Difluoropiperidin-1-yl)-6-methylpyrimidin-4-yl)-1,3,4-thiadiazol-2-yl)-3-(6-azaspiro[2.5]octan-6-yl)phenyl)-2-hydroxyethane-1-sulfonamide] | 0.022 | 0.284 |  |
| Cc1cc(-c2nnc(-c3ccc(NS(=O)(=O)CCO)cc3N3CCC4(CC3)CC4)o2)nc(N2CC(F)(F)CC(F)(F)C2)n1 [Example I-100, N-(4-(5-(6-Methyl-2-(3,3,5,5-tetrafluoropiperidin-1-yl)pyrimidin-4-yl)-1,3,4-oxadiazol-2-yl)-3-(6-azaspiro[2.5]octan-6-yl)phenyl)-2-hydroxyethane-1-sulfonamide] | 0.01 | 0.115 |  |
| CCc1cc(-c2cnn(-c3ccc(NS(=O)(=O)CCO)cc3N3CCC4(CC3)CC4)c2)nc(N2CCC(F)(F)CC2)n1 [Example I-95, N-(4-(4-(2-(4,4-Difluoropiperidin-1-yl)-6-ethylpyrimidin-4-yl)-1H-pyrazol-1-yl)-3-(6-azaspiro[2.5]octan-6-yl)phenyl)-2-hydroxyethane-1-sulfonamide] | 0.002 | 0.412 |  |
| Cc1cc(-c2cnn(-c3ccc(NS(=O)(=O)CCO)cc3N3CCC4(CC3)CC4)c2)nc(OCCC(F)(F)F)n1 [Example I-115, N-(4-(4-(6-Methyl-2-(3,3,3-trifluoropropoxy)pyrimidin-4-yl)-1H-pyrazol-1-yl)-3-(6-azaspiro[2.5]octan-6-yl)phenyl)-2-hydroxyethane-1-sulfonamide] | 0.005 | 0.167 |  |
| Cc1cc(-c2nnc(-c3ccc(NS(=O)(=O)CCO)cc3N3CCC4(CC3)CC4)o2)nc(N2CC3CC3C2)n1 (stereo not drawn) [Example I-86, N-(4-(5-(2-(3-azabicyclo[3.1.0]hexan-3-yl)-6-methylpyrimidin-4-yl)-1,3,4-oxadiazol-2-yl)-3-(6-azaspiro[2.5]octan-6-yl)phenyl)-2-hydroxyethane-1-sulfonamide] | 0.003 | 0.07 |  |
| O=S(=O)(CCO)Nc1ccc(-n2cc(-c3ccnc(N4CCC(F)(F)CC4)n3)cn2)c(N2CCC3(CC2)CC3)c1 [Example I-109, N-(4-(4-(2-(4,4-Difluoropiperidin-1-yl)pyrimidin-4-yl)-1H-pyrazol-1-yl)-3-(6-azaspiro[2.5]octan-6-yl)phenyl)-2-hydroxyethane-1-sulfonamide] | 0.005 | 0.066 |  |
| Cc1cc(-c2nnc(-c3ccc(NS(=O)(=O)CCO)cc3N3CCC4(CC3)CC4)s2)nc(N2CCC(F)(F)CC2)n1 [Example I-77, N-(4-(5-(2-(4,4-Difluoropiperidin-1-yl)-6-methylpyrimidin-4-yl)-1,3,4-thiadiazol-2-yl)-3-(6-azaspiro[2.5]octan-6-yl)phenyl)-2-hydroxyethane-1-sulfonamide] | 0.002 | 0.12 |  |
| Cc1cc(-c2nnc(-c3ccc(NS(=O)(=O)CCO)cc3N3CCC4(CC3)CC4)o2)nc(N2CCC(F)CC2)n1 [Example I-8, N-(4-(5-(2-(4-fluoropiperidin-1-yl)-6-methylpyrimidin-4-yl)-1,3,4-oxadiazol-2-yl)-3-(6-azaspiro [2.5]octan-6-yl)phenyl)-2-hydroxyethanesulfonamide] | 0.002 | 0.035 |  |
